Measured values reported in US20060247320A1, “Compounds for inhibiting KSP kinesin activity” (priority 2005, published 2006).

biological target: T1, KSP motor domain (Homo sapiens, UniProt P52732); assay: biochemical; conditions: KSP inhibitory activity, end-point assay; class symbols (Table 1)
T1 sequence (P52732 18-359 limits assumed): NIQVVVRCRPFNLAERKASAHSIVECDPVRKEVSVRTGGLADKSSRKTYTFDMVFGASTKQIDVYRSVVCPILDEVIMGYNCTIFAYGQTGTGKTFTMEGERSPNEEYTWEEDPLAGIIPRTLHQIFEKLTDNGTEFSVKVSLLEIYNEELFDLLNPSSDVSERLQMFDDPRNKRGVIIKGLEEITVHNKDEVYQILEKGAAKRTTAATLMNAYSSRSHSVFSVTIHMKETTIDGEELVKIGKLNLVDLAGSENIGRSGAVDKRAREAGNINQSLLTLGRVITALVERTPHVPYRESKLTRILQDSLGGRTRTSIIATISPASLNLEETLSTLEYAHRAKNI

SMILES	IC50 (nM)
CC(C)(C)C1CCc2nc3sc(NC(N)=O)cc3cc2C1 (stereo not shown) [Example 125, (6-tert-Butyl-5,6,7,8-tetrahydrothieno[2,3-b]quinolin-2-yl)urea]	B/C
CC(C)(C)C1CCc2nc3sc(NC=O)nc3cc2C1 (stereo not shown) [Example 134, N-(7-tert-Butyl-5,6,7,8-tetrahydrothiazolo[5,4-b]quinolin-2-yl)-formamide]	B/C

same assay, conditions: KSP inhibitory activity, end-point assay; class symbols (Table 1); read-out: IC50

SMILES	IC50
COC(=O)[C@@H]1C[C@@H](O)CN1C(=O)c1cc2cc3c(nc2s1)CCC(C(C)(C)C)C3 (stereo partly shown) [Example 84]	1000 to 10000 nM
CC(C)(C)C1CCc2nc3sc(C(=O)N[C@@H]4CCC[C@H]4O)cc3cc2C1 (stereo partly shown) [Example 85]	1000 to 10000 nM
CC(C)(C)C1CCc2nc3sc(C(=O)N[C@H]4CCC[C@@H]4O)cc3cc2C1 (stereo partly shown) [Example 86]	1000 to 10000 nM
CC(C)(C)C1CCc2nc3sc(C(=O)N4CCC[C@@H]4C(=O)O)cc3cc2C1 (stereo partly shown) [Example 88]	> 10000 nM
COC(=O)[C@H]1CCCN1C(=O)c1cc2cc3c(nc2s1)CCC(C(C)(C)C)C3 (stereo partly shown) [Example 89]	> 10000 nM
COC(=O)[C@H]1CCCCN1C(=O)c1cc2cc3c(nc2s1)CCC(C(C)(C)C)C3 (stereo partly shown) [Example 90]	> 10000 nM
CC(C)(C)C1CCc2nc3sc(C(=O)N4CCCC[C@@H]4C(=O)O)cc3cc2C1 (stereo partly shown) [Example 91]	> 10000 nM
COC(=O)[C@H]1C[C@@H](O)CN1C(=O)c1cc2cc3c(nc2s1)CCC(C(C)(C)C)C3 (stereo partly shown) [Example 92]	> 10000 nM
CC(C)(C)C1CCc2nc3sc(C(=O)N4C[C@H](O)C[C@@H]4C(=O)O)cc3cc2C1 (stereo partly shown) [Example 93]	> 10000 nM
COC(=O)C(CO)NC(=O)c1cc2cc3c(nc2s1)CCC(C(C)(C)C)C3 (stereo not shown) [Example 94]	100 to 1000 nM
CC(C)(C)C1CCc2nc3sc(C(=O)N4CCNCC4)cc3cc2C1 (stereo not shown) [Example 95]	> 10000 nM
CC(C)(C)C1CCc2nc3sc(C(=O)NC(CO)CO)cc3cc2C1 (stereo not shown) [Example 96]	100 to 1000 nM
CN1CCN(C(=O)c2cc3cc4c(nc3s2)CCC(C(C)(C)C)C4)CC1 (stereo not shown) [Example 97]	> 10000 nM
CC(C)(C)C1CCc2nc3sc(C(=O)NC(CO)(CO)CO)cc3cc2C1 (stereo not shown) [Example 98]	1000 to 10000 nM
CC(C)(C)C1CCc2nc3sc(C(=O)NCCN)cc3cc2C1 (stereo not shown) [Example 99]	< 100 nM
CC(C)(C)C1CCc2nc3sc(C(=O)NC(CO)C(N)=O)cc3cc2C1 (stereo not shown) [Example 100]	100 to 1000 nM
CC(C)(C)C1CCc2nc3sc(C(=O)NCCCN)cc3cc2C1 (stereo not shown) [Example 101]	100 to 1000 nM
CC(C)(C)C1CCc2nc3sc(C(=O)NCCCO)cc3cc2C1 (stereo not shown) [Example 102]	100 to 1000 nM
CC(O)CNC(=O)c1cc2cc3c(nc2s1)CCC(C(C)(C)C)C3 (stereo not shown) [Example 103]	1000 to 10000 nM
CC(C)(C)C1CCc2nc3sc(C(=O)NO)cc3cc2C1 (stereo not shown) [Example 104, 6-tert-Butyl-5,6,7,8-tetrahydrothieno[2,3-b]quinoline-2-carboxylic acid hydroxyamide]	< 100 nM
CC(C)(C)C1CCc2nc3sccc3cc2C1 (stereo not shown) [Example 105, 6-tert-Butyl-5,6,7,8-tetrahydrothieno[2,3-b]quinoline]	1000 to 10000 nM
CC(C)(C)C1CCc2nc3sc(C#N)c(Cl)c3cc2C1 (stereo not shown) [Example 111, 6-tert-Butyl-3-chloro-5,6,7,8-tetrahydrothieno[2,3-b]quinoline-2-carbonitrile]	> 10000 nM

SMILES	IC50
CC(C)(C)C1CCc2nc3sc(C#N)c(Br)c3cc2C1 (stereo not shown) [Example 112, 6-tert-Butyl-3-bromo-5,6,7,8-tetrahydrothieno[2,3-b]quinoline-2-carbonitrile]	> 10000 nM
CCC(C)(C)C1CCc2nc3sc(C#N)cc3c(Cl)c2C1 (stereo not shown) [Example 113]	1000 to 10000 nM
CCC(C)(C)C1C=Cc2nc3sc(C(N)=O)cc3cc2C1 (stereo not shown) [Example 114]	< 100 nM
CCC(C)(C)C1CCc2nc3sc(C(N)=O)cc3c(Cl)c2C1 (stereo not shown) [Example 115]	1000 to 10000 nM
CCC(C)(C)C1CCc2nc3sc(C(N)=O)cc3c(O)c2C1 (stereo not shown) [Example 116]	> 10000 nM
CC(C)(C)C1CCc2nc3sc(C(N)=O)c(N)c3cc2C1 (stereo not shown) [Example 118, 3-Amino-6-tert-butyl-5,6,7,8-tetrahydrothieno[2,3-b]quinoline-2-carboxylic acid amide]	1000 to 10000 nM
CC(C)(C)C1CCc2nc3sc4c(=O)[nH]nnc4c3cc2C1 (stereo not shown) [Example 119, 7-tert-Butyl-6,7,8,9-tetrahydro2H-11-thia-2,3,4,10-tetraazabenzo[b]fluoren-1-one]	1000 to 10000 nM
CC(C)(C)C1CCc2nc3sc(S(C)(=O)=O)c(N)c3cc2C1 (stereo not shown) [Example 120, 6-tert-Butyl-2-methanesulfonyl-5,6,7,8-tetrahydrothieno[2,3-b]quinolin-3-ylamine]	100 to 1000 nM
CC(C)(C)C1CCc2nc3sc(S(C)(=O)=O)c(O)c3cc2C1 (stereo not shown) [Example 121, 6-tert-Butyl-2-methanesulfonyl-5,6,7,8-tetrahydrothieno[2,3-b]quinolin-3-ol]	> 10000 nM
CC(C)(C)C1CCc2nc3sc(S(C)(=O)=O)cc3cc2C1 (stereo not shown) [Example 122, 6-tert-Butyl-2-methanesulfonyl-5,6,7,8-tetrahydrothieno[2,3-b]quinoline]	1000 to 10000 nM
CC(C)(C)C1CCc2nc3sc(S(N)(=O)=O)cc3cc2C1 (stereo not shown) [Example 123, 6-tert-Butyl-5,6,7,8-tetrahydrothieno[2,3-b]quinoline-2-sulfonic acid amide]	100 to 1000 nM
CC(=O)Nc1cc2cc3c(nc2s1)CCC(C(C)(C)C)C3 (stereo not shown) [Example 124, N-(6-tert-Butyl-5,6,7,8-tetrahydrothieno[2,3-b]quinolin-2-yl)acetamide]	1000 to 10000 nM
CC(C)(C)C1CCc2nc3c(cc2C1)c(N)c(C#N)[s+]3[O-] (stereo not shown) [Example 126, 3-Amino-6-tert-butyl-1-oxo-5,6,7,8-tetrahydro-1H-1λ^4-thieno[2,3-b]quinoline-2-carbonitrile]	1000 to 10000 nM
CC(C)(C)C1CCc2nc3c(cc2C1)C(N)=C(C#N)S3(=O)=O (stereo not shown) [Example 127, 3-Amino-6-tert-butyl-1,1-dioxo-5,6,7,8-tetrahydro-1H-1λ^6-thieno[2,3-b]quinoline-2-carbonitrile]	1000 to 10000 nM
CC(C)(C)C1CCc2nc3sc(S)nc3cc2C1 (stereo not shown) [Example 128, 7-tert-Butyl-5,6,7,8-tetrahydrothiazolo[5,4-b]quinoline-2-thiol]	100 to 1000 nM
CSc1nc2cc3c(nc2s1)CCC(C(C)(C)C)C3 (stereo not shown) [Example 129, 7-tert-butyl-2-methylsulfanyl-5,6,7,8-tetrahydrothiazolo[5,4-b]quinoline]	> 10000 nM
CC(C)(C)C1CCc2nc3sc(C#N)nc3cc2C1 (stereo not shown) [Example 130, 7-tert-Butyl-5,6,7,8-tetrahydrothiazolo[5,4-b]quinoline-2-carbonitrile]	1000 to 10000 nM
CC(C)(C)C1CCc2nc3sc(C(N)=O)nc3cc2C1 (stereo not shown) [Example 131, 7-tert-Butyl-5,6,7,8-tetrahydrothiazolo[5,4-b]quinoline-2-carboxylic acid amide]	100 to 1000 nM
CC(C)(C)C1CCc2nc3sc(NC(N)=O)nc3cc2C1 (stereo not shown) [Example 132, (7-tert-Butyl-5,6,7,8-tetrahydrothiazolo[5,4-b]quinolin-2-yl)-urea]	1000 to 10000 nM
CC(C)(C)C1CCc2nc3sc(N)nc3cc2C1 (stereo not shown) [Example 133, 7-tert-Butyl-5,6,7,8-tetrahydrothiazolo[5,4-b]quinolin-2-ylamine]	> 10000 nM
CC(=O)Nc1nc2cc3c(nc2s1)CCC(C(C)(C)C)C3 (stereo not shown) [Example 135, N-(7-tert-Butyl-5,6,7,8-tetrahydrothiazolo[5,4-b]quinolin-2-yl)acetamide]	100 to 1000 nM

same assay, conditions: exact IC50 values, end-point assay (Table 2); read-out: IC50

SMILES	IC50
CC(C)(C)C1CCc2nc3sc(C(=O)NCCN)cc3cc2C1 (stereo not shown) [Example 99]	22 nM
